Assay results published in the supplement of paper PMC10307832.

Key:
Assay in all cases: relative viability (nuclei count vs DMSO), 5 days (fraction); higher = more cells survive
[1] = compound: CC(C)(C)c1nc(-c2cccc(NS(=O)(=O)c3c(F)cccc3F)c2F)c(-c2ccnc(N)n2)s1 [Dabrafenib] + Nc1nc2[nH]cc(CCc3ccc(C(=O)N[C@@H](CCC(=O)O)C(=O)O)cc3)c2c(=O)[nH]1 [Pemetrexed] (partner 0.2 µM)
Method in brief: (§1)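 Nuclei were stained with Hoechst during a one-step fixation (final 0.05% Triton X-100, 1% formaldehyde, 1 ug/ml Hoechst) carried out 5 days after dosing, then counted on 4× images. The cells, lung cancer lines in 1536-well plates, had been dosed by pin tool the day after seeding with one drug alone or a fixed anchor-drug dose plus five library-drug doses (not always all listed) in √10 steps. Relative viability is the nuclei count in treated wells divided by that in vehicle wells, and each value is the median of duplicate plates.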

[2] = compound: NC(=O)c1ccc(N(C(N)=O)c2c(F)cccc2F)nc1-c1ccc(F)cc1F [VX-702] + COc1cccc2cc(-c3nc([C@H]4CC[C@H](C(=O)O)CC4)n4ncnc(N)c34)[nH]c12 [OSI-027] (partner 0.5 µM)
Method in brief: as §1

[3] = compound: NC(=O)c1ccc(N(C(N)=O)c2c(F)cccc2F)nc1-c1ccc(F)cc1F [VX-702] + O=C(c1cc(Cc2n[nH]c(=O)c3ccccc23)ccc1F)N1CCN(C(=O)C2CC2)CC1 [Olaparib] (partner 8 µM)
Method in brief: as §1

[4] = compound: NC(=O)c1ccc(N(C(N)=O)c2c(F)cccc2F)nc1-c1ccc(F)cc1F [VX-702] + Nc1ncn([C@H]2C[C@H](O)[C@@H](CO)O2)c(=O)n1 [Decitabine] (partner 2 µM)
Method in brief: as §1

Row | Cell Line | relative viability ([1]; first compound 0.003 µM) | relative viability ([1]; first compound 0.009487 µM) | relative viability ([1]; first compound 0.03 µM) | relative viability ([1]; first compound 0.09487 µM) | relative viability ([1]; first compound 0.3 µM) | relative viability ([2]; first compound 0.02 µM) | relative viability ([2]; first compound 0.2 µM) | relative viability ([2]; first compound 0.6325 µM) | relative viability ([2]; first compound 2 µM) | relative viability ([3]; first compound 0.02 µM) | relative viability ([3]; first compound 0.2 µM) | relative viability ([3]; first compound 0.6325 µM) | relative viability ([3]; first compound 2 µM) | relative viability ([4]; first compound 0.02 µM) | relative viability ([4]; first compound 0.2 µM) | relative viability ([4]; first compound 0.6325 µM) | relative viability ([4]; first compound 2 µM)
1 | NCI-H2009 | 0.997 | 0.956 | 0.818 | 0.761 | 0.701 | 0.688 | 0.88 | 0.774 | 0.801 | 0.751 | 0.705 | 0.739 | 0.842 | 0.392 | 0.435 | 0.454 | 0.399
2 | NCI-H2023 | 0.229 | 0.247 | 0.207 | 0.211 | 0.255 | 0.349 | 0.445 | 0.441 | 0.416 | 0.459 | 0.461 | 0.552 | 0.637 | 0.23 | 0.219 | 0.211 | 0.231
3 | NCI-H2085 | 0.707 | 1.05 | 0.861 | 0.864 | 1.08 | 0.87 | 0.636 | 0.726 | 0.627 | 0.818 | 0.824 | 0.878 | 0.833 | 0.568 | 0.575 | 0.627 | 0.524
4 | NCI-H2087 |  | 0.64 | 0.662 | 0.695 | 0.643 | 0.55 | 0.471 | 0.48 | 0.497 | 0.552 | 0.58 | 0.669 | 0.709 | 0.288 | 0.242 | 0.254 | 0.294
5 | NCI-H2126 | 0.624 | 0.808 | 0.623 | 0.706 | 0.756 | 0.774 | 0.593 | 0.693 | 0.713 | 0.901 | 0.91 | 0.945 | 0.98 | 0.547 | 0.567 | 0.566 | 0.595
6 | NCI-H2170 | 0.274 | 0.265 | 0.26 | 0.252 | 0.282 | 0.746 | 0.693 | 0.698 | 0.762 | 0.611 | 0.546 | 0.631 | 0.676 | 0.444 | 0.415 | 0.466 | 0.486
7 | NCI-H2342 | 0.751 | 0.779 | 0.747 | 0.765 | 0.858 | 0.632 | 0.651 | 0.644 | 0.692 | 0.401 | 0.457 | 0.475 | 0.466 | 0.788 | 0.821 | 0.697 | 0.754
8 | NCI-H2347 |  | 0.445 | 0.362 | 0.399 | 0.405 | 0.491 |  | 0.494 | 0.336 | 0.498 | 0.467 | 0.638 | 0.456 | 0.643 | 0.606 | 0.683 | 0.639
9 | NCI-H2405 |  | 0.967 | 0.687 | 0.878 | 0.839 | 0.677 | 0.641 | 0.544 | 0.668 | 0.931 | 0.805 | 0.897 | 0.901 | 0.727 | 0.709 | 0.709 | 0.759
10 | NCI-H3122 | 0.19 | 0.195 | 0.214 | 0.203 | 0.215 | 0.922 | 0.874 | 0.917 | 1.05 | 0.636 | 0.61 | 0.66 | 0.555 | 0.435 | 0.371 | 0.417 | 0.435
11 | PC-3 [JPC-3] |  | 1.24 | 1.12 | 1.05 | 1.14 | 0.8 | 0.768 | 0.818 | 0.644 | 1.2 | 1.14 | 1.16 | 1.31 | 0.804 | 0.888 | 0.888 | 0.853
12 | PC-14 |  | 0.135 | 0.133 | 0.125 | 0.154 | 0.893 | 0.966 | 0.849 | 0.806 | 0.315 | 0.329 | 0.338 | 0.282 | 0.199 | 0.261 | 0.221 | 0.218
13 | RERF-LC-KJ | 0.491 | 0.525 | 0.477 | 0.501 | 0.536 | 0.608 | 0.547 | 0.57 | 0.534 | 1.01 | 0.854 | 0.921 | 0.901 | 0.762 | 0.759 | 0.66 | 0.685
14 | SK-LU-1 |  | 1.06 | 0.898 | 0.865 | 0.715 | 0.386 | 0.341 | 0.339 | 0.354 | 0.504 | 0.435 | 0.526 | 0.567 | 0.625 | 0.61 | 0.653 | 0.702
15 | SK-MES-1 |  | 0.952 | 0.915 | 0.86 | 0.742 | 0.669 | 0.666 | 0.584 | 0.542 | 0.679 | 0.681 | 0.622 | 0.696 | 0.387 | 0.388 | 0.308 | 0.297
16 | SW 1573 | 0.79 | 0.9 | 0.792 | 0.777 | 0.782 | 0.715 | 0.636 | 0.504 | 0.482 | 0.495 | 0.445 | 0.438 | 0.448 | 0.518 | 0.434 | 0.412 | 0.437
17 | UMC-11 | 0.761 | 0.806 | 0.727 | 0.822 | 0.871 | 0.482 | 0.446 | 0.458 | 0.533 | 0.346 | 0.352 | 0.368 | 0.269 | 0.515 | 0.616 | 0.643 | 0.791
